Data reported in paper PMC3083228 (The Journal of Biological Chemistry, 2011).

Target: T1, SpIH (Strongylocentrotus purpuratus, UniProt O76977)
T1 sequence (O76977 1-767): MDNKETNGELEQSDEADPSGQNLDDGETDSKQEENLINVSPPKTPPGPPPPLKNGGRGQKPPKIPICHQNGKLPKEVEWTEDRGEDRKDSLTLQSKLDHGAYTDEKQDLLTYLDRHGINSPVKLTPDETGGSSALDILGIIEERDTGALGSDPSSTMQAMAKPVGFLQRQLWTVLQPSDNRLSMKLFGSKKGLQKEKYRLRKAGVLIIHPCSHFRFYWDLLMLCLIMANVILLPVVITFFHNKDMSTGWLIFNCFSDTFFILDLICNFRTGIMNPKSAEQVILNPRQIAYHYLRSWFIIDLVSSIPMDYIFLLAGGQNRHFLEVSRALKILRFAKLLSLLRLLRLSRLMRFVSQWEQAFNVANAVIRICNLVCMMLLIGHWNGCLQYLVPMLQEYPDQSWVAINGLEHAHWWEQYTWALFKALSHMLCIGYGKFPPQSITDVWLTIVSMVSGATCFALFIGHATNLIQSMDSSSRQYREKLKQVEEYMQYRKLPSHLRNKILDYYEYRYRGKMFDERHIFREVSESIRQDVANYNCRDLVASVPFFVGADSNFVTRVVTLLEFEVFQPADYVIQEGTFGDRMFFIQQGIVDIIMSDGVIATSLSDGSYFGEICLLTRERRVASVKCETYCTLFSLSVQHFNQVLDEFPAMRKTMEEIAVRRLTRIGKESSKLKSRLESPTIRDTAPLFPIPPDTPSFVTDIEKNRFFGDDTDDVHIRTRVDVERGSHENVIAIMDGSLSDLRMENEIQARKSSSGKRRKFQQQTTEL
Type: cell-based

- IC50: 13.6 µM
Structure (SMILES): CCCCCCCC(=O)OC[C@H](COP(=O)(O)O[C@H]1[C@H](O)[C@@H](O)[C@H](OP(=O)(O)O)[C@@H](O)[C@H]1O)OC(=O)CCCCCCC [diC8-PIP]
